Results reported in the supplement of paper PMC10307832.

Each cell line was assayed with Cc1cnc(Nc2ccc(OCCN3CCCC3)cc2)nc1Nc1cccc(S(=O)(=O)NC(C)(C)C)c1 [Fedratinib] + COc1cc2c(Oc3ccc(NC(=O)C4(C(=O)Nc5ccc(F)cc5)CC4)cc3F)ccnc2cc1OCCCN1CCOCC1 [Foretinib] (partner 0.25 µM) (assay: relative viability (nuclei count vs DMSO), 5 days (fraction); higher = more cells survive). Conditions: first compound 0.1 µM.
Method in brief: (§1)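 Relative viability equals treated-well nuclei counts divided by vehicle-well nuclei counts. Counts came from 4× images of lung cancer cell lines grown in 1536-well plates for 5 days after pin-tool dosing on the day after seeding. Dosing used one drug alone or a fixed anchor-drug dose plus five library-drug doses (not always all listed) in √10 steps, and values are medians of duplicate plates.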

Cell Line | relative viability
NCI-H2342 | 1.05
NCI-H1623 | 0.839
NCI-H727 | 0.835
EBC-1 | 0.112
NCI-H1703 | 0.317
NCI-H1993 | 0.763
SW 1573 | 0.906
NCI-H838 | 1.05
LCLC-103H | 0.644
NCI-H520 | 0.797
NCI-H2126 | 1.07
EMC-BAC-2 | 1
NCI-H2085 | 0.883
Calu-6 | 0.855
HCC-366 | 0.918
NCI-H1666 | 0.927
NCI-H596 | 0.881

Cell Line | relative viability
LK-2 | 1.1
NCI-H2087 | 0.65
SK-MES-1 | 0.865
H3255 | 0.82
COR-L23 | 0.912
IA-LM | 1.15
ChaGo-K-1 | 0.811
A549 | 0.896
SW 900 | 0.868
NCI-H661 | 0.959
NCI-H1299 | 1.06
CAL-12T | 0.934
NCI-H2228 | 0.847
NCI-H1563 | 0.894
ABC-1 | 1.03
NCI-H358 | 0.482
NCI-H650 | 0.943

Same assay, conditions: first compound 0.3162 µM

Cell Line | relative viability
NCI-H2342 | 1.07
NCI-H1623 | 0.876
NCI-H727 | 0.808
NCI-H1650 | 1.1
EBC-1 | 0.103
NCI-H1703 | 0.296
NCI-H1993 | 0.818
SW 1573 | 0.947
NCI-H838 | 1.06
LCLC-103H | 0.797
NCI-H520 | 0.736
NCI-H2126 | 1.06
EMC-BAC-2 | 1.01
NCI-H2085 | 0.861
Calu-6 | 0.857
HCC-366 | 0.922
NCI-H1666 | 0.991
NCI-H596 | 0.78

Cell Line | relative viability
LK-2 | 1.14
NCI-H2087 | 1.01
SK-MES-1 | 1.07
H3255 | 0.766
COR-L23 | 0.838
IA-LM | 1.23
ChaGo-K-1 | 0.923
A549 | 0.938
SW 900 | 1.05
NCI-H661 | 1.1
NCI-H1299 | 1.09
CAL-12T | 0.992
NCI-H2228 | 0.825
NCI-H1563 | 0.927
ABC-1 | 1.22
NCI-H358 | 0.63
NCI-H650 | 1.01

Same assay, conditions: first compound 1 µM

Cell Line | relative viability
NCI-H2342 | 0.989
NCI-H1623 | 0.817
NCI-H727 | 0.779
NCI-H1650 | 0.885
EBC-1 | 0.1
NCI-H1703 | 0.324
NCI-H1993 | 0.808
SW 1573 | 0.807
NCI-H838 | 0.989
LCLC-103H | 0.608
NCI-H520 | 0.726
NCI-H2126 | 1.08
EMC-BAC-2 | 1
NCI-H2085 | 0.909
Calu-6 | 0.784
HCC-366 | 0.911
NCI-H1666 | 0.962
NCI-H596 | 0.762

Cell Line | relative viability
LK-2 | 1.14
NCI-H2087 | 1.01
SK-MES-1 | 0.795
H3255 | 0.877
COR-L23 | 0.921
IA-LM | 1.12
ChaGo-K-1 | 0.899
A549 | 0.892
SW 900 | 0.804
NCI-H661 | 1
NCI-H1299 | 1.07
CAL-12T | 1.08
NCI-H2228 | 0.743
NCI-H1563 | 0.874
ABC-1 | 0.96
NCI-H358 | 0.541
NCI-H650 | 1.01

What follows are cell lines tested with Cc1cnc(Nc2ccc(OCCN3CCCC3)cc2)nc1Nc1cccc(S(=O)(=O)NC(C)(C)C)c1 [Fedratinib] + Nc1ncn([C@H]2C[C@H](O)[C@@H](CO)O2)c(=O)n1 [Decitabine] (partner 2 µM) in the same assay as above. Conditions: first compound 0.1 µM.
Method in brief: as §1

Cell Line | relative viability
NCI-H2342 | 0.753
NCI-H727 | 0.864
NCI-H1650 | 0.454
NCI-H1993 | 0.473
SW 1573 | 0.524
NCI-H838 | 0.444
LCLC-103H | 0.725
NCI-H520 | 0.557
NCI-H2126 | 0.532
EMC-BAC-2 | 1.01
NCI-H2085 | 0.53
HCC-366 | 0.29
NCI-H1666 | 0.638
NCI-H596 | 0.937
LK-2 | 0.275
NCI-H2087 | 0.206
NCI-H1648 | 0.473
SK-MES-1 | 0.394
H3255 | 0.607
COR-L23 | 0.4
ChaGo-K-1 | 0.488
HCC-44 | 0.929
A549 | 0.121
NCI-H522 | 0.634
SW 900 | 0.399
NCI-H661 | 0.566
NCI-H1792 | 0.429
ABC-1 | 0.976
NCI-H358 | 0.156
NCI-H650 | 0.349

Same assay, conditions: first compound 0.3162 µM

Cell Line | relative viability
NCI-H2342 | 0.759
NCI-H727 | 0.792
NCI-H1650 | 0.349
NCI-H1993 | 0.725
SW 1573 | 0.577
NCI-H838 | 0.454
LCLC-103H | 0.734
NCI-H520 | 0.454
NCI-H2126 | 0.596
EMC-BAC-2 | 1.07
NCI-H2085 | 0.563
HCC-366 | 0.307
NCI-H1666 | 0.746
NCI-H596 | 1.01
LK-2 | 0.269
NCI-H2087 | 0.242
NCI-H1648 | 0.51
SK-MES-1 | 0.409
H3255 | 0.685
COR-L23 | 0.416
ChaGo-K-1 | 0.513
HCC-44 | 0.947
A549 | 0.302
NCI-H522 | 0.698
SW 900 | 0.425
NCI-H661 | 0.54
NCI-H1792 | 0.438
ABC-1 | 1.09
NCI-H358 | 0.21
NCI-H650 | 0.372

Same assay, conditions: first compound 1 µM

Cell Line | relative viability
NCI-H2342 | 0.745
NCI-H727 | 0.874
NCI-H1650 | 0.399
NCI-H1993 | 0.704
SW 1573 | 0.105
NCI-H838 | 0.431
LCLC-103H | 0.703
NCI-H520 | 0.532
NCI-H2126 | 0.605
EMC-BAC-2 | 0.988
NCI-H2085 | 0.518
HCC-366 | 0.366
NCI-H1666 | 0.7
NCI-H596 | 0.975
LK-2 | 0.352
NCI-H2087 | 0.219
NCI-H1648 | 0.443
SK-MES-1 | 0.241
H3255 | 0.507
COR-L23 | 0.177
ChaGo-K-1 | 0.544
HCC-44 | 0.949
A549 | 0.257
NCI-H522 | 0.668
SW 900 | 0.516
NCI-H661 | 0.423
NCI-H1792 | 0.504
ABC-1 | 1.01
NCI-H358 | 0.101
NCI-H650 | 0.34

These cell lines were tested with Cc1cnc(Nc2ccc(OCCN3CCCC3)cc2)nc1Nc1cccc(S(=O)(=O)NC(C)(C)C)c1 [Fedratinib] + CC1(C)CCC(c2ccc(Cl)cc2)=C(CN2CCN(c3ccc(C(=O)NS(=O)(=O)c4ccc(N[C@H](CCN5CCOCC5)CSc5ccccc5)c(S(=O)(=O)C(F)(F)F)c4)cc3)CC2)C1 [Navitoclax] (partner 0.5 µM) in the same assay as above. Conditions: first compound 0.1 µM.
Method in brief: as §1

Cell Line | relative viability
NCI-H727 | 0.381
NCI-H1650 | 1.25
EBC-1 | 0.28
NCI-H1703 | 0.482
NCI-H1993 | 0.75
SW 1573 | 0.984
NCI-H838 | 1.11
NCI-H520 | 1.13
NCI-H2126 | 0.852
EMC-BAC-2 | 1.19
NCI-H2085 | 1.01
Calu-6 | 0.828
HCC-366 | 1.22
NCI-H1666 | 0.877
NCI-H596 | 0.853
LK-2 | 0.831
NCI-H2087 | 0.928
SK-MES-1 | 1.39
H3255 | 0.533
COR-L23 | 0.936
IA-LM | 0.884
ChaGo-K-1 | 0.786
HCC-44 | 0.914
A549 | 1.55
NCI-H1299 | 1.04
CAL-12T | 1
NCI-H2228 | 0.631
NCI-H1792 | 0.653

Same assay, conditions: first compound 0.3162 µM

Cell Line | relative viability
NCI-H727 | 0.346
NCI-H1650 | 1.12
EBC-1 | 0.282
NCI-H1703 | 0.955
NCI-H1993 | 0.869
SW 1573 | 1
NCI-H838 | 1.17
NCI-H520 | 1.07
NCI-H2126 | 0.831
EMC-BAC-2 | 1.15
NCI-H2085 | 1.01
Calu-6 | 0.795
HCC-366 | 1.04
NCI-H1666 | 0.96
NCI-H596 | 0.992
LK-2 | 1.34
NCI-H2087 | 0.962
SK-MES-1 | 1.19
H3255 | 0.385
COR-L23 | 1.06
IA-LM | 0.721
ChaGo-K-1 | 1.11
HCC-44 | 0.874
A549 | 1.2
NCI-H1299 | 1.06
CAL-12T | 1.15
NCI-H2228 | 0.838
NCI-H1792 | 0.58

Same assay, conditions: first compound 1 µM

Cell Line | relative viability
NCI-H727 | 0.213
NCI-H1650 | 1.15
EBC-1 | 0.155
NCI-H1703 | 0.498
NCI-H1993 | 0.903
SW 1573 | 0.927
NCI-H838 | 1.06
NCI-H520 | 0.983
NCI-H2126 | 0.86
EMC-BAC-2 | 1.11
NCI-H2085 | 0.883
Calu-6 | 0.727
HCC-366 | 1.07
NCI-H1666 | 0.946
NCI-H596 | 0.976
LK-2 | 0.777
NCI-H2087 | 1
SK-MES-1 | 1.07
H3255 | 0.384
COR-L23 | 0.899
IA-LM | 0.972
ChaGo-K-1 | 0.425
HCC-44 | 1.04
A549 | 1.1
NCI-H1299 | 1.01
CAL-12T | 1.13
NCI-H2228 | 0.599
NCI-H1792 | 0.59

What follows are cell lines tested with Cc1cnc(Nc2ccc(OCCN3CCCC3)cc2)nc1Nc1cccc(S(=O)(=O)NC(C)(C)C)c1 [Fedratinib] + Cc1nc(NC(=O)N2CCC[C@H]2C(N)=O)sc1-c1ccnc(C(C)(C)C(F)(F)F)c1 [Alpelisib] (partner 2 µM) in the same assay as above. Conditions: first compound 0.1 µM.
Method in brief: as §1

Cell Line | relative viability
NCI-H727 | 0.597
EBC-1 | 0.743
NCI-H1703 | 0.161
NCI-H1993 | 0.612
SW 1573 | 0.813
NCI-H838 | 0.979
LCLC-103H | 1.07
NCI-H520 | 0.912
